PubChem BioAssay (NCI)
Several values for one entry are separate records, joined by “and”; a condition that tells them apart may be missing. Equal values may be shown once.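 Interpolation was linear, between the two tested concentrations surrounding the appropriate level; five concentrations were tested over 48 hours in 96-well plates. Here, GI50 denotes the concentration required for 50% inhibition of growth. Definition used: TGI = concentration required for complete inhibition of growth.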

Legend:
Assay in all cases: NCI tumour cell line growth inhibition, 48 h
COLO 205 colon = system: COLO 205 colon
HCT-116 colon = system: HCT-116 colon
HCT-15 colon = system: HCT-15 colon
HL-60(TB) leukemia = system: HL-60(TB) leukemia
HOP-92 NSCLC = system: HOP-92 NSCLC
HS 578T breast = system: HS 578T breast
IGROV1 ovarian = system: IGROV1 ovarian
KM12 colon = system: KM12 colon
RPMI-8226 leukemia = system: RPMI-8226 leukemia
SK-OV-3 ovarian = system: SK-OV-3 ovarian

Structure (SMILES) | GI50 (COLO 205 colon) | TGI (COLO 205 colon) | GI50 (HCT-116 colon) | TGI (HCT-116 colon) | GI50 (HCT-15 colon) | TGI (HCT-15 colon) | GI50 (HL-60(TB) leukemia) | TGI (HL-60(TB) leukemia) | GI50 (HOP-92 NSCLC) | TGI (HOP-92 NSCLC) | GI50 (HS 578T breast) | TGI (HS 578T breast) | GI50 (IGROV1 ovarian) | TGI (IGROV1 ovarian) | GI50 (KM12 colon) | TGI (KM12 colon) | GI50 (RPMI-8226 leukemia) | TGI (RPMI-8226 leukemia) | GI50 (SK-OV-3 ovarian) | TGI (SK-OV-3 ovarian)
NC(=O)OCCn1cc(-c2nc(-c3c[nH]c4ncccc34)cs2)c2ccccc21 | 2.06 µM | 9.57 µM | 1.72 µM | 5.02 µM | 1.92 µM | > 100 µM | 2.12 µM | 5.45 µM | 0.668 µM | 3.71 µM | 1.07 µM | 4.25 µM | 0.138 µM | 1.95 µM | 1.44 µM | 9.45 µM | 2.04 µM | 8.03 µM | 1.54 µM | 6.44 µM
CCCOc1ccc2sc(NC(=O)OC)nc2c1 | 0.838 µM | 13.5 µM | 1.06 µM | > 100 µM | 0.611 µM | > 100 µM | 0.616 µM | 5.24 µM | 3.38 µM | > 100 µM | 3.48 µM | > 100 µM | – | > 100 µM | 0.627 µM | > 100 µM | 2.65 µM | > 100 µM | 4.36 µM | > 100 µM
CN(CCO)c1ccc(N2Cc3ccccc3OC3=C2C(=O)c2c(O)ccc(O)c2C3=O)cn1 | 0.133 µM | 0.302 µM | 0.0467 µM | 0.223 µM | 0.127 µM | 0.484 µM | 0.114 µM | 0.406 µM | 0.223 µM | 0.505 µM | 0.418 µM | > 100 µM | 0.203 µM | 0.636 µM | 0.387 µM | 1.63 µM | 0.227 µM | 0.713 µM | 2.24 µM | 8.65 µM
O=C(CSC1CCc2ccccc21)N/N=C/c1ccccc1O (configuration not stated) | 5.87 µM | > 100 µM | 5.01 µM | 65.6 µM | 2.27 µM | > 100 µM | 2.6 µM | 8.72 µM | 2.61 µM | 37.5 µM | 11.7 µM | 67.2 µM | 2.24 µM | 37.4 µM | 3.73 µM | 23.7 µM | 7.47 µM | 38.4 µM | 11.5 µM | > 100 µM
CCN(Cc1ccccc1C)c1ccc(CO)c(Cl)c1 | 13.3 µM | 28.2 µM | 0.445 µM | 11.6 µM | 8.57 µM | 29.3 µM | 11.3 µM | 34.4 µM | 1.83 µM | 9.14 µM | 16 µM | 42.3 µM | – | 0.747 µM | 11.8 µM | 26.6 µM | 4.04 µM | 23.5 µM | 13.7 µM | 31.5 µM
C1=C\COCc2cc(ccc2OCCN2CCCC2)Nc2nccc(n2)-c2cccc(c2)COC/1 | 1.35 µM | 4.29 µM | 1.03 µM | 4.07 µM | 1.26 µM | 7.51 µM | 1.28 µM | 4.79 µM | 1.34 µM | 4.86 µM | 1.18 µM | 5.78 µM | 0.871 µM | 3.85 µM | 0.348 µM | 3.74 µM | 3.12 µM | 6.35 µM | 3.62 µM | 6.19 µM
O=C(c1ccc(/C=C/c2n[nH]c3ccccc23)cc1)N1CCNCC1 | 3.96 µM and 0.598 µM | > 10 µM and 5.9 µM | 1.5 µM and 2.02 µM | 2.88 µM and 20.9 µM | 1.5 µM and 3.47 µM | – | 1.94 µM and 4.15 µM | 4.45 µM and 22.3 µM | 2.71 µM and 1.89 µM | > 10 µM and 7.63 µM | 1.93 µM and 4.22 µM | 7.36 µM and 31.7 µM | 5.32 µM and 3.14 µM | > 10 µM and 19.1 µM | – | > 10 µM and 5.35 µM | 4.21 µM and 10.5 µM | > 10 µM and 47.3 µM | > 10 µM and 5.15 µM | > 10 µM and 20.4 µM
CC[C@H]1CN2CCc3cc(OC)c(OC)cc3[C@@H]2C[C@@H]1C[C@H]1NCCc2c1[nH]c1ccc(O)cc21 | 0.019 µM and 0.0187 µM | 0.0339 µM and 0.0347 µM and < 0.0117 µM | 0.0196 µM and 0.0409 µM | 0.0475 µM and 0.207 µM and 0.195 µM | 0.688 µM | 5.38 µM and 4.1 µM | 0.0296 µM and 0.025 µM | 0.0955 µM and 0.0514 µM and 0.0353 µM | 0.0183 µM and 0.0337 µM | – | – | 0.0653 µM and 0.0327 µM | 0.0267 µM and 0.0328 µM | 0.0806 µM and 0.159 µM and 0.196 µM | 0.0507 µM and 0.0994 µM | 0.283 µM and 1.37 µM and 0.519 µM | 0.0272 µM and 0.0305 µM | – | 0.0348 µM and 0.0711 µM | 0.142 µM and 0.431 µM and 0.529 µM
O=C1NC(=O)/C(=C\c2ccccc2)C2=C1CCCC2 | 3.86 µM | 14.6 µM | 3.38 µM | 11.1 µM | 10.4 µM | 22.5 µM | 3.25 µM | 12.5 µM | 15.9 µM | 38.2 µM | 3.46 µM | 22.8 µM | 13 µM | 32.4 µM | 9.21 µM | 22 µM | 1.91 µM | – | 14.6 µM | 27.8 µM
COc1ccc(-c2ccc(-c3ccc(C(=N)N)s3)s2)cc1 | 0.309 µM | 0.916 µM | 0.179 µM | 0.342 µM | 0.195 µM | 0.415 µM | 0.208 µM | 0.423 µM | 1.16 µM | 2.71 µM | 0.295 µM | 1.41 µM | 0.244 µM | 0.509 µM | 0.19 µM | 0.357 µM | 0.221 µM | 0.469 µM | 2.14 µM | 4.3 µM
COc1cc(C(=O)N2CCN(c3ncccn3)CC2)c(N)cc1OCc1ccccc1 | > 100 µM | > 100 µM | > 100 µM | > 100 µM | > 100 µM | > 100 µM | > 100 µM | > 100 µM | > 100 µM | > 100 µM | > 100 µM | > 100 µM | > 100 µM | > 100 µM | > 100 µM | > 100 µM | > 100 µM | > 100 µM | > 100 µM | > 100 µM
O[C@H](c1cc(C(F)(F)F)nc2c(C(F)(F)F)cccc12)[C@@H]1CCCCN1 | 1.98 µM | 4.27 µM | 2.3 µM | 5.44 µM | 11.9 µM | 27 µM | 2.08 µM | 4.51 µM | 1.79 µM | 8.43 µM | 4.35 µM | 25.5 µM | 1.17 µM | 4.14 µM | 1.63 µM | 3.34 µM | 11.2 µM | 42.8 µM | 6.11 µM | 17.8 µM
